Like-named read-outs stand apart in the source and are kept apart here.
Key:
[1] = biological target: DCAF1(WDR) + BRD9-BD(130-250) (Homo sapiens, UniProt Q9H8M2+Q9Y4B6, E1398S); test: SPR ternary binding assay, immobilized DCAF1(WDR), BRD9-BD(130-250) in buffer
Method: Surface plasmon resonance (SPR) experiments were performed on Biacore T200 and 8 K+ instruments (Cytiva). […] Binary complexes were analyzed with a kinetic 1:1 fit model to obtain KD values. The fit of apparent steady state RU intensities of the ternary complexes was performed using a bell-shaped curve algorithm implemented in Graphpad Prism. […] Residence times (t1/2) were calculated by the inversion of the off-rate.

[2] = biological target: T1, DCAF1(WDR) with additional 10 µM BRD9-BD(130-250) (Homo sapiens, UniProt Q9H8M2+Q9Y4B6, E1398S); test: DCAF1 TR-FRET, cooperative format with 10 µM BRD9-BD(130-250); type: binding; conditions: read-out: TR-FRET Q. IC50 [μM], + BRD9
T1 construct: 2 nM human DCAF1(1073-1399)_E1398S-Avi-His; human BRD9-BD(130-250) in the cooperative assay; His6 (C); GST (PreScission site) (N, cleaved yes); made in house; host or cells: DCAF1: Sf9 with BirA; BRD9: E. coli Rosetta (pGEX6P1)
Method: Competition assay conditions consist of 20 µL total volume in white 384-well plates (Greiner), in 30 mM phosphate buffer pH 7.4 containing 140 mM NaCl, 0.01% Tween20, 1 mM TCEP and 1% final DMSO. Tested compounds at 14 different concentrations were pre-incubated at 22 °C for 30 min with a large excess of 10 µM human BTK (G389-S659) or 10 µM human BRD9-BD(130-250) in the cooperative assay or with buffer in standard binary assay. […] Samples were then incubated at 22 °C for 30 min before reading using a Tecan infinite M-1000 or PheraStar FSX (excitation 340 nm, emission 490 and 520 nm). DCAF1 protein was omitted in the negative control. IC50 fitting was carried out using an in-house developed software (Novartis Helios software application, unpublished, a publicly available alternative would be e.g., Graphpad Prism) using the methods described by Fomenko et al.[93] (regression algorithms for nonlinear dose-response curve fitting). Following normalization of activity values for the wells to % inhibition (% inhibition = [(high control-sample)/(high control-low control)] × 100). Data analysis could also be carried out using GraphPad Prism without prior normalization. The reported IC50 values are the average of at least two independent experiments.

[3] = biological target: BTK (Homo sapiens, UniProt Q06187); test: Immunoblot of BTK in TMD8 WT and CRBN (CBt) resistant cells; type: cell-based; design: performed with full-length BTK and endogenous DCAF1; expressed in transfected cells; host or cells: TMD8 cells, lentiviral, blasticidin-selected (TMD8 BTK-GFP/mCh); conditions: 24 h; 0.1 µM CBt, 1 µM DBt-10
Method: Whole cell lysates for immunoblotting were prepared by pelleting cells at 4 °C (300 g) for 3 min. Cell pellets were then washed 1x with PBS and resuspended in RIPA lysis buffer (VWR, cat # 97063-270) supplemented with protease (Thermo Scientific, cat # A32955) and phosphatase (Thermo Scientific, cat # A32957) inhibitor tablets. Lysates were clarified at 16,000 × g for 15 min at 4 °C prior to quantification by Lowry assay (Bio-Rad cat # 5000113 and cat # 5000114). Whole-cell lysates were loaded into 4–20% Criterion TGX Precast 18 well gels (Bio-Rad, cat # 5671094) and separated by electrophoreses at 120 V for 1 h. The gels were transferred to a nitrocellulose membrane using the Trans-Blot Turbo (Bio-Rad) for 7 min and then blocked for 1 h at room temperature in Odyssey blocking buffer (LICOR Biosciences, cat # 927-50000). Membranes were probed with the appropriate primary antibodies (diluted 1:1000) overnight at 4 °C in 20% Odyssey blocking buffer in 1x TBST. Membranes were washed three times with 1x TBST (5 min per wash), and then incubated with IRDye goat anti-mouse (LICOR, cat # 926-32210) or goat anti-rabbit (LICOR, cat # 926-32211) secondary antibody diluted 1:10,000 in 20% Odyssey blocking buffer for 1 h at room temperature. After three 5-min washes with 1x TBST, the immunoblots were visualized using the ODYSSEY Infrared Imaging System (LICOR). […]

[4] = test system: TMD8 BTK-GFP/mCh cells; test: Viability by FSC/SSC gate (flow cytometry) in TMD8 BTK-GFP/mCh cells; type: cell-based, human
How it was run: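 TMD8 BTK-GFP/mCh cells (25,000/well) dosed with compound for 24 h and analysed by flow cytometry. Viability is the decline in percentage of single cells within an FSC/SSC gate defined by DMSO-treated cells; three biological replicates, 4-parameter logistic fit.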

Sequence of DCAF1(WDR) + BRD9-BD(130-250) (Q9Y4B6 1073-1399 E1398S): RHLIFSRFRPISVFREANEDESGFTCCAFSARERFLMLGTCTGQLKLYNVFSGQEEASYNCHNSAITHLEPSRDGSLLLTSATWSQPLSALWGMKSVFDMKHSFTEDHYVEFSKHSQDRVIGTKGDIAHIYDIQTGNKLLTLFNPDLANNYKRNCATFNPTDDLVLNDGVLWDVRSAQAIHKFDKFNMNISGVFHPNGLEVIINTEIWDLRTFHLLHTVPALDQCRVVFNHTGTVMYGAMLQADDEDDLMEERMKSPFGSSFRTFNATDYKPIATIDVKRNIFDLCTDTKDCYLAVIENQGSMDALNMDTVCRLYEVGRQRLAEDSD
Sequence of DCAF1(WDR) + BRD9-BD(130-250) (Q9H8M2 130-250): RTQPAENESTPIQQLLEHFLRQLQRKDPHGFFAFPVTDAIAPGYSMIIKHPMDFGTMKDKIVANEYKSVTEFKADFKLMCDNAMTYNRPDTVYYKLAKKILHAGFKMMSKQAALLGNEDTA
T1 sequence (Q9Y4B6 1073-1399 E1398S): as the sequence (Q9Y4B6 1073-1399 E1398S) above
T1 sequence (Q9H8M2 130-250): as the sequence (Q9H8M2 130-250) above
Sequence of BTK (Q06187 2-659 limits assumed): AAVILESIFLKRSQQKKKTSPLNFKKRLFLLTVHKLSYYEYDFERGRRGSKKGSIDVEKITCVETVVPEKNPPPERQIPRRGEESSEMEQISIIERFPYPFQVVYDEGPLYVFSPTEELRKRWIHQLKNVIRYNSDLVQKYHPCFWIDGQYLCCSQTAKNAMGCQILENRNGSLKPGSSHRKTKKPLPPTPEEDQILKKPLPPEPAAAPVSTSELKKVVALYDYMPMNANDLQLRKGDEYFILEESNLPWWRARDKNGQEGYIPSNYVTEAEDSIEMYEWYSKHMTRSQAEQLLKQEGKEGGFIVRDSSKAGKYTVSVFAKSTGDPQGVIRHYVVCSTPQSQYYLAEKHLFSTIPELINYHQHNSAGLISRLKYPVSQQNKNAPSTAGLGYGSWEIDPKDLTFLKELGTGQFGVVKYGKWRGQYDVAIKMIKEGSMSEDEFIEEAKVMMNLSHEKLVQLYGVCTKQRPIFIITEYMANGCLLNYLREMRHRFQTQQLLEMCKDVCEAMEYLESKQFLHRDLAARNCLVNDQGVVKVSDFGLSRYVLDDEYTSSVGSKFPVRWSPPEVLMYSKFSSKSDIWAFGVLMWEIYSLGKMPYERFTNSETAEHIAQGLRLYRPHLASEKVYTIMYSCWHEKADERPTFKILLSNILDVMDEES

## COc1cc(-c2cn(C)c(=O)c3cnccc23)c(OC)cc1CN1CCC(OCCCCCC(=O)N2CCN(c3ccc4c(NCCN)nc(C5(c6ccc(Cl)cc6)CCCCC5)nc4c3)CC2)CC1 [DBr-1]
[1]; Kd1, apparent KD of first sigmoidal transition, in the presence of 0.2 µM BRD9-BD(130-250)
  Kd: 0.02 µM
[1]; SPR KD [μM], + BRD9, with additional BRD9-BD(130-250)
  Kd: 0.005 µM
[1]; read-out: Kd2, apparent KD of second sigmoidal transition, in the presence of 0.2 µM BRD9-BD(130-250)
  Kd: 6.11 µM
[2]
  IC50: 0.002 µM

## Cc1c(NC(=O)N2CC(O)(CC(C)(C)C)C2)cc(F)cc1-c1ncnc2[nH]c(-c3cnn(CC(=O)N4CCC5(CC4)CN(CCNC(=O)CCCC(=O)N4CCN(c6ccc7c(NCCN)nc(C8(c9ccc(Cl)cc9)CCCCC8)nc7c6)CC4)CCO5)c3)cc12 [DBt-10]
[3]
  BTK degradation in TMD8 CBt sensitive (WT) vs resistant cells: equipotent degradation of BTK

## CC(=O)N1CCN(c2ccc3c(NCCN)nc(C4(c5ccc(Cl)cc5)CCCCC4)nc3c2)CC1 [compound 13]
[4]; TMD8 BTK-GFP/mCh, 24 h
  concentrations with loss of viability: > 5 µM
[4]; discussion
  concentrations leading to cellular toxicity: 5 to 10 µM
